Results: patent US6518458B1, “(Aminoiminomethyl) amino) alkane-carboxamides and their applications in therapy” (Merck Patent GmbH, priority 1999, dated 2003)
Structures can show the parent of a compound that is named as a salt. Where two headings read alike, the source gives them in different places.

Columns and labels:
Nostz rat = test: Antidiabetic activity in the Nostz rat (non-insulin-dependent diabetes induced using streptozotocin); format: in vivo; settings: po, 2 h, blood 2 h after final administration, diabetic rats, read-out: percentage change in glycaemia relative to d0 (before treatment); for change in vivo at 20 mg/kg: 20 mg/kg/d oral; for change in vivo at 200 mg/kg: 200 mg/kg/d oral
Method: The antidiabetic activity of the compounds of formula (I) was determined orally on an experimental model of non-insulin-dependent diabetes induced in the rat using streptozotocin.
The model of non-insulin-dependent diabetes is obtained in rats by neonatal injection (on the day of birth) of streptozotocin.
The diabetic rats used are 8 weeks old. The animals are kept from the day of their birth to the day of the experiment in an animal house at a regulated temperature of from 21 to 22° C. and are subjected to a fixed cycle of light (from 7.00 am to 7.00 pm) and darkness (from 7.00 pm to 7.00 am). Their diet consisted of a maintenance diet; water and food were provided ad libitum, except for the 2 hours fasting prior to the tests in which food is withdrawn (post-absorptive state).
The rats are treated orally for one (d1) or four (d4) days with the test product. Two hours after the final administration of the product and 30 minutes after anaesthesia of the animals with sodium pentobarbital (Nembutalo®), […] of blood is sampled from the end of the tail.

Row | SMILES | melting point [°C] | change in vivo at 20 mg/kg (Nostz rat; d1 (one day of treatment)) [%] | change in vivo at 20 mg/kg (Nostz rat; d4 (four days of treatment)) [%] | change in vivo at 200 mg/kg (Nostz rat; d1 (one day of treatment)) [%] | change in vivo at 200 mg/kg (Nostz rat; d4 (four days of treatment)) [%]
1 | CC(C)c1cccc(C(C)C)c1NC(=O)CNC(=N)N (as salt: HCl) [Compound 2] | 260 to 262 | – | – | – | –
2 | Cc1cccc(C)c1NC(=O)[C@H](C)NC(=N)N [Compound 6] | – | 8 | -3 | -4 | -18
3 | Cc1cc(C)c(NC(=O)CNC(=N)N)c(C)c1 [Compound 7] | – | -9 | -9 | -3 | -10
4 | CCC(C)[C@H](NC(=N)N)C(=O)Nc1c(C)cccc1C (stereo partly drawn) [Compound 8] | – | -11 | -14 | -8 | -10
5 | Cc1cccc(C)c1NC(=O)[C@H](CC(C)C)NC(=N)N [Compound 9] | – | -4 | -15 | 7 | -4
6 | Cc1cccc(C)c1NC(=O)[C@H](C(C)C)N(C)C(=N)N [Compound 10] | – | -13 | -15 | -3 | -16
7 | N=C(N)NCC(=O)N(Cc1ccccc1)Cc1ccccc1 [Compound 11] | – | -14 | -9 | -3 | -16
8 | N=C(N)NCC(=O)Nc1c(Cl)cccc1Cl [Compound 12] | – | -9 | -13 | -14 | -27
9 | CSc1cc(C)nc(SC)c1NC(=O)CNC(=N)N [Example 3] | – | 7 | -7 | -5 | -4
10 | Cc1cccc(C)c1NC(=O)CN(C)C(=N)N [Example 5] | – | -2 | -7 | -16 | -25

Second part, led by results:

Row | melting point [°C] | SMILES | change in vivo at 20 mg/kg (Nostz rat; d1 (one day of treatment)) [%] | change in vivo at 20 mg/kg (Nostz rat; d4 (four days of treatment)) [%] | change in vivo at 200 mg/kg (Nostz rat; d1 (one day of treatment)) [%] | change in vivo at 200 mg/kg (Nostz rat; d4 (four days of treatment)) [%]
11 | 159 to 161 | Cc1cccc(C)c1NC(=O)[C@H](C)NC(=N)N (as salt: HCl) [Compound 6] | – | – | – | –
12 | > 260 | Cc1cc(C)c(NC(=O)CNC(=N)N)c(C)c1 (as salt: HCl) [Compound 7] | – | – | – | –
13 | 217 to 219 | N=C(N)NCC(=O)N(Cc1ccccc1)Cc1ccccc1 (as salt: HCl) [Compound 11] | – | – | – | –
14 | 181 to 183 | N=C(N)NCC(=O)Nc1c(Cl)cccc1Cl (as salt: HCl) [Compound 12] | – | – | – | –
15 | 144 to 146 | N=C(N)NCC(=O)NCc1ccccc1 (as salt: HCl) [Compound 15] | – | – | – | –
16 | 249 to 251 | CSc1cc(C)nc(SC)c1NC(=O)CNC(=N)N (as salt: HCl) [Example 3] | – | – | – | –
17 | 227 to 229 | Cc1cccc(C)c1NC(=O)CN(C)C(=N)N (as salt: HCl) [Example 5] | – | – | – | –
18 | 255 to 257 | Cc1cccc(C)c1NC(=O)CNC(=N)N [Example 1] | -3 | -7 | -20 | -24
19 | 223 to 225 | Cc1cccc(C)c1NC(=O)CCNC(=N)N [Example 4] | -1 | -11 | -13 | -15
